Assay results reported in US12655116B2, “Substituted isophthalic acid diamides” (Bayer Aktiengesellschaft, priority 2020, dated 2026).

What was measured:
MATIN [1] = test: Pre-emergence herbicidal action against MATIN; type: in vivo, Matricaria inodora
Method in brief: (§1)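 Greenhouse pots of sandy loam held seeds covered with soil, onto which the compound was applied before emergence. An aqueous suspension or emulsion of WP or EC was used at 600 to 800 l/ha with 0.2% wetting agent. Percent damage was judged visually at 3 weeks.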

ABUTH [2] = test: Post-emergence herbicidal action against ABUTH; type: in vivo, Abutilon theophrasti; conditions: visual assessment about 3 weeks after treatment vs untreated controls
Method in brief: (§2)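 A WP or EC formulation diluted in water with 0.2% wetting agent was sprayed at 600 to 800 l/ha onto one-leaf-stage plants grown in sandy loam. About 3 weeks later, action was rated visually in percent, 100% being dead plants.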

POLCO = test: Pre-emergence herbicidal action against POLCO; type: in vivo, Polygonum convolvulus
Method in brief: as §1

SETVI [3] = test: Post-emergence herbicidal action against SETVI; type: in vivo, Setaria viridis; conditions: dosage 20 g/ha
Method in brief: as §2

MATIN [4] = test: Post-emergence herbicidal action against MATIN; type: in vivo, Matricaria inodora; conditions: dosage 20 g/ha
Method in brief: as §2

AMARE [5] = test: Post-emergence herbicidal action against AMARE; type: in vivo, Amaranthus retroflexus; conditions: 20 g/ha, visual assessment about 3 weeks after treatment, 100% = plants have died, 0% = like control plants
Method in brief: as §2

PHBPU [6] = test: Pre-emergence herbicidal action against PHBPU; type: in vivo, Pharbitis purpurea; conditions: dosage 80 g/ha
Method in brief: as §1

AVEFA = test: Pre-emergence herbicidal action against AVEFA; type: in vivo, Avena fatua; conditions: for Pre-emergence action against AVEFA: 20 g/ha, scored visually after 3 weeks, 100% = plants have died, 0% = like control plants
Method in brief: as §1

VERPE [7] = test: Pre-emergence herbicidal action against VERPE; type: in vivo, Veronica persica
Method in brief: as §1

VIOTR [8] = test: Pre-emergence herbicidal action against VIOTR; type: in vivo, Viola tricolor
Method in brief: as §1

AMARE [9] = test: Pre-emergence herbicidal action against AMARE; type: in vivo, Amaranthus retroflexus
Method in brief: as §1

ALOMY [10] = test: Post-emergence herbicidal action against ALOMY; type: in vivo, Alopecurus myosuroides; conditions: visual assessment about 3 weeks after treatment vs untreated controls
Method in brief: as §2

ALOMY [11] = test: Pre-emergence herbicidal action against ALOMY; type: in vivo, Alopecurus myosuroides
Method in brief: as §1

ECHCG [12] = test: Post-emergence herbicidal action against ECHCG; type: in vivo, Echinochloa crus-galli
Method in brief: as §2

VIOTR [13] = test: Post-emergence herbicidal action against VIOTR; type: in vivo, Viola tricolor
Method in brief: as §2

ECHCG [14] = test: Pre-emergence herbicidal action against ECHCG; type: in vivo, Echinochloa crus-galli
Method in brief: as §1

ABUTH [15] = test: Pre-emergence herbicidal action against ABUTH; type: in vivo, Abutilon theophrasti
Method in brief: as §1

SETVI [16] = test: Pre-emergence herbicidal action against SETVI; type: in vivo, Setaria viridis
Method in brief: as §1

VERPE [17] = test: Post-emergence herbicidal action against VERPE; type: in vivo, Veronica persica
Method in brief: as §2

PHBPU [18] = test: Post-emergence herbicidal action against PHBPU; type: in vivo, Pharbitis purpurea
Method in brief: as §2

[19] = 20 g/ha, scored visually after 3 weeks vs untreated controls, 100% = plants have died, 0% = like control plants
[20] = 80 g/ha, scored visually after 3 weeks vs untreated controls (100% = plants have died, 0% = like control plants)
[21] = 20 g/ha, scored visually after 3 weeks, 100% = plants have died, 0% = like control plants
[22] = 80 g/ha, pre-emergence, scored visually after 3 weeks vs untreated controls (100% = plants have died, 0% = like control plants)
[23] = dosage 20 g/ha, scored visually after 3 weeks vs untreated controls, 100% = plants have died, 0% = like control plants

CCc1c(C(=O)Nc2nnnn2C)ccc(C(F)(F)F)c1C(=O)NCC1CC1 [Example 1-274]
Pre-emergence action against MATIN in % (MATIN [1]; dosage 20 g/ha): 100% | Pre-emergence action against MATIN in % (MATIN [1]; dosage 80 g/ha): 100% | Post-emergence action against ABUTH in % (ABUTH [2]; dosage 20 g/ha): 80% | Pre-emergence action against POLCO in % (POLCO; dosage 20 g/ha): 80% | Pre-emergence action against POLCO in % (POLCO; dosage 80 g/ha): 90% | Post-emergence action against SETVI in % (SETVI [3]): 90% | Post-emergence action against MATIN in % (MATIN [4]): 80% | Post-emergence action at 20 g/ha against AMARE in % (AMARE [5]): 100% | Pre-emergence action against PHBPU in % (PHBPU [6]): 90% | Pre-emergence action against AVEFA (AVEFA): 80% | Pre-emergence action against AVEFA in % (AVEFA; 80 g/ha, pre-emergence): 90% | Pre-emergence action against VERPE in % (VERPE [7]; dosage 20 g/ha): 90% | Pre-emergence action against VERPE in % (VERPE [7]; dosage 80 g/ha): 90% | Pre-emergence action against VIOTR in % (VIOTR [8]; dosage 20 g/ha): 90% | Pre-emergence action against VIOTR in % (VIOTR [8]; dosage 80 g/ha): 90% | Pre-emergence action against AMARE in % (AMARE [9]; [19]): 100% | Pre-emergence action against AMARE in % (AMARE [9]; [20]): 100% | Post-emergence action against ALOMY in % (ALOMY [10]; dosage 20 g/ha): 80% | Pre-emergence action against ALOMY (ALOMY [11]; [21]): 80% | Pre-emergence action against ALOMY (herbicidal activity) (ALOMY [11]; [22]): 90% | Post-emergence action against ECHCG in % (ECHCG [12]; dosage 5 g/ha): 80% | Post-emergence action against ECHCG in % (ECHCG [12]; dosage 20 g/ha): 90% | Post-emergence action against VIOTR in % (VIOTR [13]; 20 g/ha): 80% | Pre-emergence action against ECHCG in % (ECHCG [14]; 80 g/ha): 100% | Pre-emergence action against ABUTH (herbicidal activity) (ABUTH [15]; [20]): 100% | Pre-emergence action against ABUTH (herbicidal activity in percent) (ABUTH [15]; [23]): 100% | Pre-emergence action against SETVI in % (SETVI [16]; dosage 80 g/ha): 100% | Post-emergence action against VERPE in % (VERPE [17]; 20 g/ha): 80% | Post-emergence action against PHBPU in % (PHBPU [18]; dosage 5 g/ha): 80% | Post-emergence action against PHBPU in % (PHBPU [18]; dosage 20 g/ha): 90%

CCc1c(C(=O)Nc2nnnn2C)ccc(C(F)(F)F)c1C(=O)NC(C)C1CC1 (stereo not drawn) [Example 1-341]
Pre-emergence action against MATIN in % (MATIN [1]; dosage 20 g/ha): 100% | Pre-emergence action against MATIN in % (MATIN [1]; dosage 80 g/ha): 100% | Post-emergence action against ABUTH in % (ABUTH [2]; dosage 20 g/ha): 80% | Pre-emergence action against POLCO in % (POLCO; dosage 80 g/ha): 80% | Post-emergence action against SETVI in % (SETVI [3]): 80% | Post-emergence action against MATIN in % (MATIN [4]): 80% | Post-emergence action at 20 g/ha against AMARE in % (AMARE [5]): 100% | Pre-emergence action against PHBPU in % (PHBPU [6]): 80% | Pre-emergence action against AVEFA (AVEFA): 80% | Pre-emergence action against AVEFA in % (AVEFA; 80 g/ha, pre-emergence): 90% | Pre-emergence action against VERPE in % (VERPE [7]; dosage 20 g/ha): 80% | Pre-emergence action against VERPE in % (VERPE [7]; dosage 80 g/ha): 90% | Pre-emergence action against VIOTR in % (VIOTR [8]; dosage 20 g/ha): 100% | Pre-emergence action against VIOTR in % (VIOTR [8]; dosage 80 g/ha): 100% | Pre-emergence action against AMARE in % (AMARE [9]; [19]): 100% | Pre-emergence action against AMARE in % (AMARE [9]; [20]): 100% | Post-emergence action against ALOMY in % (ALOMY [10]; dosage 20 g/ha): 80% | Pre-emergence action against ALOMY (ALOMY [11]; [21]): 80% | Pre-emergence action against ALOMY (herbicidal activity) (ALOMY [11]; [22]): 90% | Post-emergence action against ECHCG in % (ECHCG [12]; dosage 5 g/ha): 80% | Post-emergence action against ECHCG in % (ECHCG [12]; dosage 20 g/ha): 90% | Post-emergence action against VIOTR in % (VIOTR [13]; 20 g/ha): 80% | Pre-emergence action against ECHCG in % (ECHCG [14]; 80 g/ha): 90% | Pre-emergence action against ABUTH (herbicidal activity) (ABUTH [15]; [20]): 100% | Pre-emergence action against ABUTH (herbicidal activity in percent) (ABUTH [15]; [23]): 100% | Pre-emergence action against SETVI in % (SETVI [16]; dosage 20 g/ha): 80% | Pre-emergence action against SETVI in % (SETVI [16]; dosage 80 g/ha): 100% | Post-emergence action against VERPE in % (VERPE [17]; 5 g/ha): 80% | Post-emergence action against VERPE in % (VERPE [17]; 20 g/ha): 90% | Post-emergence action against PHBPU in % (PHBPU [18]; dosage 20 g/ha): 80%

CCCNC(=O)c1c(C(F)F)ccc(C(=O)Nc2nnnn2CC)c1C [Example 2-344]
pest or weed control at 20 g/ha (MATIN [1]; Tripleurospermum inodorum, 504 h, dosage 20 g/ha): 100% | pest or weed control at 80 g/ha (MATIN [1]; Tripleurospermum inodorum, 504 h, dosage 80 g/ha): 100% | pest or weed control at 5 g/ha (ABUTH [2]; Abutilon theophrasti, 504 h, dosage 5 g/ha): 90% | pest or weed control at 20 g/ha (ABUTH [2]; Abutilon theophrasti, 504 h, dosage 20 g/ha): 90% | pest or weed control at 80 g/ha (POLCO; Fallopia convolvulus, 504 h, dosage 80 g/ha): 90% | pest or weed control at 20 g/ha (SETVI [3]; Setaria viridis, 504 h): 80% | pest or weed control at 20 g/ha (MATIN [4]; Tripleurospermum inodorum, 504 h): 80% | pest or weed control at 20 g/ha (AMARE [5]; Amaranthus retroflexus, 504 h): 100% | pest or weed control at 80 g/ha (PHBPU [6]; Ipomoea purpurea, 504 h): 90% | pest or weed control at 80 g/ha (AVEFA; Avena fatua, 504 h, 80 g/ha, pre-emergence): 80% | pest or weed control at 80 g/ha (VERPE [7]; Veronica persica, 504 h, dosage 80 g/ha): 80% | pest or weed control at 20 g/ha (VIOTR [8]; Viola tricolor, 504 h, dosage 20 g/ha): 80% | pest or weed control at 80 g/ha (VIOTR [8]; Viola tricolor, 504 h, dosage 80 g/ha): 100% | pest or weed control at 20 g/ha (AMARE [9]; Amaranthus retroflexus, 504 h, 20 g/ha, scored visually after 3 weeks vs untreated controls, 100% = plants have died, 0% = like control plants): 100% | pest or weed control at 80 g/ha (AMARE [9]; Amaranthus retroflexus, 504 h, 80 g/ha, scored visually after 3 weeks vs untreated controls, 100% = plants have died, 0% = like control plants): 100% | pest or weed control at 5 g/ha (ALOMY [10]; Alopecurus myosuroides, 504 h, dosage 5 g/ha): 80% | pest or weed control at 20 g/ha (ALOMY [10]; Alopecurus myosuroides, 504 h, dosage 20 g/ha): 90% | pest or weed control at 80 g/ha (ALOMY [11]; Alopecurus myosuroides, 504 h, 80 g/ha, pre-emergence, scored visually after 3 weeks vs untreated controls (100% = plants have died, 0% = like control plants)): 100% | pest or weed control at 20 g/ha (ALOMY [11]; Alopecurus myosuroides, pre-emergence, 504 h, 20 g/ha, scored visually after 3 weeks, 100% = plants have died, 0% = like control plants): 80% | pest or weed control at 5 g/ha (ECHCG [12]; Echinochloa crus-galli, 504 h, dosage 5 g/ha): 80% | pest or weed control at 20 g/ha (ECHCG [12]; Echinochloa crus-galli, 504 h, dosage 20 g/ha): 90% | pest or weed control at 5 g/ha (VIOTR [13]; Viola tricolor, 504 h, 5 g/ha): 90% | pest or weed control at 20 g/ha (VIOTR [13]; Viola tricolor, 504 h, 20 g/ha): 100% | pest or weed control at 20 g/ha (ECHCG [14]; Echinochloa crus-galli, 504 h, 20 g/ha): 90% | pest or weed control at 80 g/ha (ECHCG [14]; Echinochloa crus-galli, 504 h, 80 g/ha): 100% | pest or weed control at 80 g/ha (ABUTH [15]; Abutilon theophrasti, 504 h, 80 g/ha, scored visually after 3 weeks vs untreated controls (100% = plants have died, 0% = like control plants)): 100% | pest or weed control at 20 g/ha (ABUTH [15]; Abutilon theophrasti, 504 h, dosage 20 g/ha, scored visually after 3 weeks vs untreated controls, 100% = plants have died, 0% = like control plants, read-out: Pre-emergence action against ABUTH (herbicidal activity in percent)): 100% | pest or weed control at 80 g/ha (SETVI [16]; Setaria viridis, 504 h, dosage 80 g/ha): 80% | pest or weed control at 20 g/ha (VERPE [17]; Veronica persica, 504 h, 20 g/ha): 80% | pest or weed control at 20 g/ha (PHBPU [18]; Ipomoea purpurea, 504 h, dosage 20 g/ha): 80%
